In article PMC12040169 (PLOS Biology, 2025) one finds viability data, which are given here for 77 compounds.

The nature of this data set: in vitro. As to conditions: human, hela cells, % viability.
As to `O=C(NCC1CCCO1)c1ccc(CNS(=O)(=O)c2cccc(Cl)c2)cc1` (centres unmarked) [CBK267219], the viability at 28.5 h, 10 µM amounted to 88.6%.

Turning to `Cc1nn(-c2nc3ccccc3s2)c(O)c1C1OC(=O)c2ccccc21` (centres unmarked) [CBK267220], the viability at 28.5 h, 10 µM was determined as 95%.

On to `CC(C)c1ccc(OCC(=O)NNC(=O)c2ccco2)c(Br)c1` [CBK267224], for which the viability at 28.5 h, 10 µM is 86.7%.

For the compound `O=C(c1ccco1)N1CCN(Cc2nc3ccccc3c(=O)n2-c2ccc(F)cc2)CC1` [CBK267226], the viability at 28.5 h, 10 µM was 94.3%.

As to `Cc1nc2ccc(NC(=S)N3CCN(c4ccccn4)CC3)cc2nc1C` [CBK267227], the viability at 28.5 h, 10 µM was 67.1%.

In the case of `CCOc1ccc2nc(SCC(=O)Nc3c(C)n(C)n(-c4ccccc4)c3=O)sc2c1` [CBK267229], the viability at 28.5 h, 10 µM stood at 95.5%.

Turning to `Cc1ccccc1OCc1nn2c(COc3ccccc3)nnc2s1` [CBK267230], the viability at 28.5 h, 10 µM amounted to 85.4%.

Take `CCOC(=O)c1c(NC(=O)CSc2nc[nH]n2)sc2c1CCCCC2` [CBK267231]: the viability at 28.5 h, 10 µM amounted to 90.8%.

`COC(=O)c1ccc(NC(=S)N2CCC(C(N)=O)CC2)cc1` [CBK267232]: the viability at 28.5 h, 10 µM was 90.2%.

`C=CCOc1ccccc1CNc1nc[nH]n1` [CBK267234]: the viability at 28.5 h, 10 µM was found to be 93.7%.

Regarding `Cc1cc(Sc2ncnc(N)c2[N+](=O)[O-])ncn1` [CBK267235], the viability at 28.5 h, 10 µM was 36.7%.

With `O=C(Nc1nnn[nH]1)C1(c2ccc([N+](=O)[O-])cc2)CCCC1` [CBK267237], the viability at 28.5 h, 10 µM is 93.7%.

In the case of `O=C(CCc1nc2ccccc2[nH]1)Nc1ccc(F)cc1` [CBK267238], the viability at 28.5 h, 10 µM worked out at 95.5%.

In the case of `O=C(CSc1nnc(-c2ccncc2)n1-c1ccccc1)N1CCN(Cc2ccccc2)CC1` [CBK267240], the viability at 28.5 h, 10 µM turned out to be 105%.

Regarding `COc1ccc(CN2CC(C(=O)O)CC2=O)cc1` (centres unmarked) [CBK267242], the viability at 28.5 h, 10 µM was 96.4%.

On to `O=C(NCCCN1CCOCC1)C(=O)NC1CC1` [CBK267243], for which the viability at 28.5 h, 10 µM came out at 101%.

For the compound `Fc1cccc(Cl)c1CNc1ccc(CNc2ncn[nH]2)cc1` [CBK267245], the viability at 28.5 h, 10 µM was determined as 93.1%.

Consider `Cc1ccc(Cl)cc1NC(=O)CC1NCCNC1=O` (centres unmarked) [CBK267246], for which the viability at 28.5 h, 10 µM was 97%.

For `Cc1ccc(-c2nn3c(C)nnc3s2)cc1NC(=O)c1ccc([N+](=O)[O-])o1` [CBK267247], the viability at 28.5 h, 10 µM was determined as 95.2%.

As to `CC(C)(C)c1ccc(S(=O)(=O)NCc2ccc(C(=O)NCc3ccccn3)cc2)cc1` [CBK267248], the viability at 28.5 h, 10 µM came to 115%.

As for `O=C(NCc1ccccn1)c1ccc(NS(=O)(=O)c2cccc(Cl)c2)cc1` [CBK267249], the viability at 28.5 h, 10 µM amounted to 111%.

In the case of `O=C(Nc1ccc(N2CCN(Cc3ccccc3F)CC2)cc1)c1cccnc1` [CBK267250], the viability at 28.5 h, 10 µM is 106%.

As for `N#C/C(=C\c1c[nH]nc1-c1ccccc1)c1nc(-c2cccc([N+](=O)[O-])c2)cs1` [CBK267252], the viability at 28.5 h, 10 µM was determined as 96.8%.

Turning to `O=C(Nc1ccc2nc(-c3ccco3)c(-c3ccco3)nc2c1)N1CCCCCC1` [CBK267253], the viability at 28.5 h, 10 µM was 85.4%.

Turning to `Nc1ncnc(Nc2ccc(F)cc2Cl)c1[N+](=O)[O-]` [CBK267255], the viability at 28.5 h, 10 µM was 93.1%.

In the case of `Cc1ccccc1C(=O)Nc1cccc(NC(=O)c2ccc(-c3cc4ccccc4oc3=O)cc2)c1` [CBK267256], the viability at 28.5 h, 10 µM turned out to be 118%.

For `CN1CCN(C(=O)c2ccc3nc(-c4ccccc4)c(-c4ccccc4)nc3c2)CC1` [CBK267257], the viability at 28.5 h, 10 µM was 98.7%.

Consider `COC(=O)COc1ccc(Oc2nc(N(C)C)nc(N3CCOCC3)n2)nn1` [CBK267258], for which the viability at 28.5 h, 10 µM was determined as 104%.

Regarding `COc1ccc(CCNc2nc(-c3ccccn3)cs2)cc1OC` [CBK267260], the viability at 28.5 h, 10 µM is 100%.

For `Nc1ncnc(NCCCc2ccccc2)c1[N+](=O)[O-]` [CBK267261], the viability at 28.5 h, 10 µM was determined as 88.9%.

In the case of `Cc1nc(C)c(-c2csc(Nc3ccc(C(=O)O)c(O)c3)n2)s1` [CBK267263], the viability at 28.5 h, 10 µM turned out to be 101%.

Turning to `O=C(O)CCNS(=O)(=O)c1cccc(F)c1` [CBK267264], the viability at 28.5 h, 10 µM was found to be 115%.

Take `COc1ccc(NC(S)=NCCN2CCC(C)CC2)cc1Cl` [CBK267268]: the viability at 28.5 h, 10 µM worked out at 84%.

As to `N#C/C(=C\c1ccc2noc(-c3ccccc3)c2c1)c1nc(-c2cc3ccccc3oc2=O)cs1` [CBK267269], the viability at 28.5 h, 10 µM amounted to 90.2%.

Turning to `O=[N+]([O-])c1ccccc1S(=O)(=O)N1CCN(c2ccnc3cc(Cl)ccc23)CC1` [CBK267271], the viability at 28.5 h, 10 µM amounted to 92.1%.

As for `CC1CCc2c(sc3nc(SCC(=O)NC(c4ccccc4)c4ccccc4)nc(N)c23)C1` (centres unmarked) [CBK267274], the viability at 28.5 h, 10 µM was determined as 91.1%.

Consider `Cc1cc(C)c(C)c(S(=O)(=O)Nc2ccc(C(=O)NCc3ccccn3)cc2)c1C` [CBK267275], for which the viability at 28.5 h, 10 µM was determined as 85.8%.

For the compound `O=C(Nc1ccccc1N1CCN(C(=O)c2ccc(Cl)cc2)CC1)c1ccc(-c2cc3ccccc3oc2=O)cc1` [CBK267280], the viability at 28.5 h, 10 µM was found to be 92.3%.

As for `CN(C)c1nc(NCc2ccccc2)nc(SCC(=O)Nc2ccc(Cl)c(Cl)c2)n1` [CBK267289], the viability at 28.5 h, 10 µM came to 97%.

As for `CC(=O)Nc1ccc(-c2csc(Nc3ccc(S(=O)(=O)Nc4nc(C)cc(C)n4)cc3)n2)cc1` [CBK267295], the viability at 28.5 h, 10 µM came to 87%.

On to `C=CCOc1ccc2ccccc2c1CNc1nc[nH]n1` [CBK267296], for which the viability at 28.5 h, 10 µM was determined as 87.9%.

As for `O=C(NCc1ccccn1)c1ccc(CNS(=O)(=O)c2cccc(Cl)c2)cc1` [CBK267297], the viability at 28.5 h, 10 µM is 100%.

For the compound `Cc1cc(NS(=O)(=O)c2ccc(Nc3nc(-c4ccc(Cl)cc4Cl)cs3)cc2)no1` [CBK267298], the viability at 28.5 h, 10 µM is 104%.

As for `CC(=O)C1=C(c2ccccc2)NC(=S)NC1c1cc(Cl)ccc1OCC(=O)O` (centres unmarked) [CBK267300], the viability at 28.5 h, 10 µM turned out to be 99.4%.

For `Cc1ccc(C)c(S(=O)(=O)NCC(=O)Nc2nsc(-c3ccccc3)n2)c1` [CBK267304], the viability at 28.5 h, 10 µM came out at 97.4%.

In the case of `O=C(Nc1ccc(S(=O)(=O)Nc2nccc(C3Cc4ccccc4C(=O)O3)n2)cc1)c1ccccc1` (centres unmarked) [CBK267306], the viability at 28.5 h, 10 µM stood at 105%.

`O=C(CSc1nnc(-c2ccco2)n1-c1ccccc1)NCc1ccc2c(c1)OCO2` [CBK267308]: the viability at 28.5 h, 10 µM is 85.3%.

On to `Clc1cccc(-c2nc(NCCCN3CCOCC3)c3ccccc3n2)c1` [CBK267309], for which the viability at 28.5 h, 10 µM was determined as 76%.

Regarding `O=[N+]([O-])c1cccc(-c2ccc(-c3nn4c(Cc5ccccc5)nnc4s3)o2)c1` [CBK267310], the viability at 28.5 h, 10 µM came out at 86.4%.

For `O=C(CN1CCOCC1)Nc1ccc(Br)cc1[N+](=O)[O-]` [CBK267314], the viability at 28.5 h, 10 µM came to 96.9%.

Take `O=C(NCCN1CCOCC1)c1cccc(S(=O)(=O)N2CCCC2)c1` [CBK267316]: the viability at 28.5 h, 10 µM was 98.2%.

Consider `CCOc1ccc(-c2cn(C(=O)Nc3ccccc3)nc2N)cc1` [CBK267317], for which the viability at 28.5 h, 10 µM was determined as 90.3%.

Consider `COc1ccc(Cl)cc1NC(=O)CC1NC2CCCCC2NC1=O` (centres unmarked) [CBK267318], for which the viability at 28.5 h, 10 µM is 80.4%.

`Nc1ncnc(NCCc2ccc(S(N)(=O)=O)cc2)c1[N+](=O)[O-]` [CBK267320]: the viability at 28.5 h, 10 µM was found to be 86.4%.

Turning to `CC(=O)Nc1ccc(NC(=O)COc2c(C)cc(Br)cc2C)cc1` [CBK267321], the viability at 28.5 h, 10 µM came to 101%.

In the case of `C=CCSc1nc(-c2ccc(OCCC)cc2)n[nH]1` [CBK267323], the viability at 28.5 h, 10 µM was 100%.

Take `CC(C)(C)NS(=O)(=O)c1ccc(NC(=O)NC2CCCCC2)cc1` [CBK267324]: the viability at 28.5 h, 10 µM amounted to 96.7%.

In the case of `COc1ccc([N+](=O)[O-])cc1NC(=O)c1ccc(-c2cc3ccccc3oc2=O)cc1` [CBK267325], the viability at 28.5 h, 10 µM amounted to 79.1%.

Regarding `Cc1ccc(C(=O)O)cc1S(=O)(=O)N1CCC(C(=O)O)CC1` [CBK267327], the viability at 28.5 h, 10 µM stood at 107%.

In the case of `O=C(O)CCNS(=O)(=O)c1cccc(Cl)c1` [CBK267328], the viability at 28.5 h, 10 µM stood at 106%.

For `Cc1cc(/C=C\c2nc(O)c([N+](=O)[O-])c(=O)[nH]2)c(C)n1-c1ccc(C(=O)O)cc1` [CBK267334], the viability at 28.5 h, 10 µM amounted to 96.4%.

For `Cc1nc2ccccc2n1CC(=O)NCCN1CCCC1` [CBK267336], the viability at 28.5 h, 10 µM was 113%.

Regarding `O=C(Nc1ccc(N2CCN(C(=O)c3cccs3)CC2)cc1)c1ccc(-c2cc3ccccc3oc2=O)cc1` [CBK267340], the viability at 28.5 h, 10 µM stood at 96.2%.

For the compound `CC1(C)CC(=O)C2=C(C1)Nc1ccccc1N(C(=S)NCc1ccco1)C2c1cccnc1` (centres unmarked) [CBK267342], the viability at 28.5 h, 10 µM was found to be 89.4%.

`c1ccc(-c2nnc3sc(-c4ccccn4)nn23)cc1` [CBK267344]: the viability at 28.5 h, 10 µM is 96.2%.

As to `CCCn1cc(C(CC(=O)O)C(=O)O)c2ccccc21` (centres unmarked) [CBK267345], the viability at 28.5 h, 10 µM is 92.4%.

As to `Cc1nc(C)c(-c2csc(Nc3ccc(O)cc3C)n2)s1` [CBK267346], the viability at 28.5 h, 10 µM was determined as 98.7%.

With `CCCCC12CN3CC(C)(CN(C1)C31C(=O)Nc3ccc(Br)cc31)C2=O` (centres unmarked) [CBK267348], the viability at 28.5 h, 10 µM was 96%.

Take `Cc1ccc(C)c(NC(=O)C2CN(S(=O)(=O)c3ccccc3)CCN2S(=O)(=O)c2ccccc2)c1` (centres unmarked) [CBK267349]: the viability at 28.5 h, 10 µM amounted to 93.5%.

`Nc1ncnc(NCCc2ccc(Cl)cc2)c1[N+](=O)[O-]` [CBK267351]: the viability at 28.5 h, 10 µM was determined as 88.3%.

With `Cc1nc(N)sc1-c1nnc(Nc2ccccc2)s1` [CBK267353], the viability at 28.5 h, 10 µM came to 82.7%.

In the case of `O=C(O)c1ccc(-c2ccc(/C=C/c3nc(O)c([N+](=O)[O-])c(=O)[nH]3)o2)cc1Cl` [CBK267354], the viability at 28.5 h, 10 µM is 88.1%.

Regarding `CC(Oc1ccc(Cl)cc1Cl)C(=O)NC(=S)Nc1ccc2c(c1)C(=O)N(C)C2=O` (centres unmarked) [CBK267356], the viability at 28.5 h, 10 µM came out at 93.9%.

Turning to `Cc1nc(N)sc1-c1csc(Nc2cccc(C(F)(F)F)c2)n1` [CBK267357], the viability at 28.5 h, 10 µM is 95.2%.

With `CCc1cc(OCCCSc2nc(C)cc(O)n2)ccc1Cl` [CBK267364], the viability at 28.5 h, 10 µM came out at 106%.

Turning to `CN(CCCc1nc(-c2ccc(Cl)cc2)no1)S(=O)(=O)c1ccc([N+](=O)[O-])cc1` [CBK267365], the viability at 28.5 h, 10 µM came out at 96%.

For the compound `CN1CCN(NC(=O)CN(C)S(=O)(=O)c2cc(Cl)ccc2Cl)CC1` [CBK267366], the viability at 28.5 h, 10 µM came out at 94.2%.

The viability is a read-out of living cells in per cent, often relative to untreated cells.
